Consider five molecules from patent publication EP3046573B1, “AMYLIN ANALOGUES” (Zealand Pharma A/S, priority 2013, dated 2015).

The target of the test is T1, human calcitonin receptor (hCTR2) (Homo sapiens, UniProt P30988).
T1 construct: expressed in transfected cells
T1 sequence (P30988 25-474): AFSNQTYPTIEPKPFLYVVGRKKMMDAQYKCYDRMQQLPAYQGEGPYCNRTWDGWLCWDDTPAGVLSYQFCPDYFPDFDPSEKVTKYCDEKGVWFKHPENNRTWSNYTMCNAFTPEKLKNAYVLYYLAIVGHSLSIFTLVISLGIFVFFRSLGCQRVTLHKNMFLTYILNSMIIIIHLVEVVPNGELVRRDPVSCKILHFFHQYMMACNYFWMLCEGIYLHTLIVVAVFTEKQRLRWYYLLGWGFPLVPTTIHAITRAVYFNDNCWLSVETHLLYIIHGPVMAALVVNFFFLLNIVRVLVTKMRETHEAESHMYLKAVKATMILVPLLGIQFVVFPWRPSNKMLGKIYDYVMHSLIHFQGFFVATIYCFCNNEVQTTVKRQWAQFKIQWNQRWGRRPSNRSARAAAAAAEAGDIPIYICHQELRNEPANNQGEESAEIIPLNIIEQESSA
The test is described as follows: hCTR2 assay: induction of cAMP (AlphaScreen cAMP Assay kit) in COS7 cells expressing hCTR2. The test is classed as cell-based. An excerpt: The cell line COS7, originating from African Green Monkey kidney fibroblast cells, was used for establishment of the stable cell lines described below. The COS7 cellular background was used due to it being RAMP naive, and as such it provides the best available system for testing of the monomeric hCTR and different heterodimeric amylin receptor subtypes functionally generated by introduction of the individual RAMPs.
A cell line expressing the human calcitonin receptor (hCTR2) was generated in the COS7 cellular background as stable clones. In brief, hCTR2 (GI: 4502547) was amplified by PCR using primers encoding terminal restriction sites for subcloning. The 5'-end primers additionally encoded a near Kozak consensus sequence to ensure efficient translation. The fidelity of the DNA encoding the receptor was confirmed by DNA sequencing. The PCR products encoding the receptor were subcloned into a mammalian expression vector containing a neomycin (G418) resistance marker. The mammalian expression vector encoding the receptor was transfected into COS7 cells by a standard liposome transfection method. 48 hours post-transfection, cells were seeded for limited dilution cloning and selected with 1 mg/ml G418 in the culture medium. After 3 weeks, surviving colonies of hCTR2-expressing cells were picked, propagated and tested in the amylin efficacy assay as described in Example 3 below. One hCTR2-expressing clone was chosen for compound profiling.
In vitro activity of test peptides at the hCTR2 and hAMYR3 receptors was assessed by measuring the induction of cAMP following stimulation of the receptor by pramlintide or peptides of the invention using the AlphaScreen® cAMP Assay kit from Perkin-Elmer.
Briefly, COS7 cells expressing hCTR2 (see Example 2, above) were seeded at 30-40,000 cells per well in 96-well microtiter plates coated with 0.01 % poly-L-lysine, and grown for 1 day in culture in 100 µl growth medium [DMEM, 10% FCS, Penicillin (100 IU/ml), Streptomycin (100 µg/ml)]. On the day of analysis, growth medium was removed and the cells were washed once with 200 µl Tyrode buffer [Tyrode's Salts (9.6 g/l), 10 mM HEPES, pH 7.4]. Cells were incubated in 100 µl Tyrode buffer containing increasing concentrations of test peptides, 100 µM IBMX and 0.1% casein for 15 min at 37° C. The reaction was stopped by carefully decanting off the compound/buffer medium and replacing it with lysis/detection buffer (80 µl 0.1 % w/v BSA, 5 mM HEPES, 0.3 % v/v Tween-20 in deionized water). After incubation at room temperature for 10 min., the cAMP content of the resulting cell lysate was estimated according to the AlphaScreen® cAMP Assay manufacturer's instructions. EC50 values and relative efficacy values (in %) compared to reference peptide (Pramlintide) were estimated by computer-aided curve fitting using the 4-parameter logistic (4PL) non-linear model.
The in vitro activity results (expressed as EC50 values) for peptides of the invention and for Pramlintide (reference peptide) are summarized in Table 2, below.

[1] abbreviates: cAMP induction in COS7 cells expressing hCTR2, average of a minimum of 3 determinations, read-out: hCTR2 EC50.

Read-outs that look alike come from different tables or passages of the source. Numbered stars: 1 amine (or outer) side, 2 acyl side, 3 side chain; on linkers, the order of the positions; unused ones are H or OH. Bridge positions count the residues as written; N and C are the ends. Square brackets hold non-standard residues; d marks the D form. Peptide text beside a SMILES is read from it. * marks the point of attachment. C20 diacid = O=C(O)CCCCCCCCCCCCCCCCCCC(=O)*; γGlu = O=C(O)[C@H](CCC(=O)[*:2])N[*:1]; NMeI = CC[C@H](C)[C@H](NC)C(=O)O; Sar = CNCC(=O)O

By EC50 is commonly meant the concentration needed to bring the measured effect to its halfway point. For `CC[C@H](C)[C@@H](C(=O)N[C@@H](CC(C)C)C(=O)N[C@@H](CO)C(=O)N[C@@H](CO)C(=O)N[C@H](C(=O)N[C@@H](CC(N)=O)C(=O)N[C@H](C(=O)NCC(=O)N[C@@H](CO)C(=O)N[C@@H](CC(N)=O)C(=O)N[C@H](C(=O)N1CCC[C@H]1C(N)=O)[C@@H](C)O)C(C)C)[C@@H](C)O)N(C)C(=O)[C@H](C)NC(=O)CN(C)C(=O)[C@@H](Cc1ccccc1)NC(=O)[C@H](CC(N)=O)NC(=O)[C@H](CC(N)=O)NC(=O)[C@H](CO)NC(=O)[C@H](CO)NC(=O)[C@H](Cc1c[nH]cn1)NC(=O)[C@H](Cc1c[nH]cn1)NC(=O)[C@H](CC(C)C)NC(=O)[C@H](Cc1ccccc1)NC(=O)[C@H](CCC(=O)O)NC(=O)[C@H](C)NC(=O)[C@H](CC(C)C)NC(=O)[C@H](CCCNC(=N)N)NC(=O)[C@H](CCC(N)=O)NC(=O)[C@@H](NC(=O)[C@H](C)NC(=O)[C@@H]1CSSC[C@H](NC(=O)[C@H](CCCNC(=N)N)NC(=O)CC[C@H](NC(=O)CCCCCCCCCCCCCCCCCCC(=O)O)C(=O)O)C(=O)N[C@@H](CC(N)=O)C(=O)N[C@@H]([C@@H](C)O)C(=O)N[C@@H](C)C(=O)N[C@@H]([C@@H](C)O)C(=O)N1)[C@@H](C)O` [Compound 13, [19CD]-isoGlu-RC()NTATC()ATQRLAEFLHHSSNN-DPhe-Gly(Me)-A-Ile(Me)-LSSTNVGSNTP-NH2] ({C20 diacid-γGlu}-RCNTATCATQRLAEFLHHSSNN[dF][Sar]A[NMeI]LSSTNVGSNTP-NH2; disulfide 2-7), the half-maximal effective concentration (EC50) was 67 pM.

With `CC[C@H](C)[C@@H](C(=O)N[C@@H](CC(C)C)C(=O)N[C@@H](CO)C(=O)N[C@@H](CO)C(=O)N[C@H](C(=O)N[C@@H](CC(N)=O)C(=O)N[C@H](C(=O)NCC(=O)N[C@@H](CO)C(=O)N[C@@H](CC(N)=O)C(=O)N[C@H](C(=O)N1CCC[C@H]1C(N)=O)[C@@H](C)O)C(C)C)[C@@H](C)O)N(C)C(=O)[C@@H](C)NC(=O)CN(C)C(=O)[C@H](Cc1ccccc1)NC(=O)[C@H](CC(N)=O)NC(=O)[C@H](CC(N)=O)NC(=O)[C@H](CO)NC(=O)[C@H](CO)NC(=O)[C@H](Cc1c[nH]cn1)NC(=O)[C@H](Cc1c[nH]cn1)NC(=O)[C@H](CC(C)C)NC(=O)[C@H](Cc1ccccc1)NC(=O)[C@H](CCC(=O)O)NC(=O)[C@H](C)NC(=O)[C@H](CC(C)C)NC(=O)[C@H](CCCNC(=N)N)NC(=O)[C@H](CCC(N)=O)NC(=O)[C@@H](NC(=O)[C@H](C)NC(=O)[C@@H]1CSSC[C@H](NC(=O)[C@H](CCCNC(=N)N)NC(=O)CC[C@H](NC(=O)CCCCCCCCCCCCCCCCCCC(=O)O)C(=O)O)C(=O)N[C@@H](CC(N)=O)C(=O)N[C@@H]([C@@H](C)O)C(=O)N[C@@H](C)C(=O)N[C@@H]([C@@H](C)O)C(=O)N1)[C@@H](C)O` [Compound 14, [19CD]-isoGlu-RC()NTATC()ATQRLAEFLHHSSNNF-Gly(Me)-DAla-Ile(Me)-LSSTNVGSNTP-NH2] ({C20 diacid-γGlu}-RCNTATCATQRLAEFLHHSSNNF[Sar][dA][NMeI]LSSTNVGSNTP-NH2; disulfide 2-7), the EC50 came to 210 pM.

For the molecule `CC[C@H](C)[C@@H](C(=O)N[C@H](CC(C)C)C(=O)N[C@@H](CO)C(=O)N[C@@H](CO)C(=O)N[C@H](C(=O)N[C@@H](CC(N)=O)C(=O)N[C@H](C(=O)NCC(=O)N[C@@H](CO)C(=O)N[C@@H](CC(N)=O)C(=O)N[C@H](C(=O)N1CCC[C@H]1C(N)=O)[C@@H](C)O)C(C)C)[C@@H](C)O)N(C)C(=O)[C@H](C)NC(=O)CN(C)C(=O)[C@H](Cc1ccccc1)NC(=O)[C@H](CC(N)=O)NC(=O)[C@H](CC(N)=O)NC(=O)[C@H](CO)NC(=O)[C@H](CO)NC(=O)[C@H](Cc1c[nH]cn1)NC(=O)[C@H](Cc1c[nH]cn1)NC(=O)[C@H](CC(C)C)NC(=O)[C@H](Cc1ccccc1)NC(=O)[C@H](CCC(=O)O)NC(=O)[C@H](C)NC(=O)[C@H](CC(C)C)NC(=O)[C@H](CCCNC(=N)N)NC(=O)[C@H](CCC(N)=O)NC(=O)[C@@H](NC(=O)[C@H](C)NC(=O)[C@@H]1CSSC[C@H](NC(=O)[C@H](CCCNC(=N)N)NC(=O)CC[C@H](NC(=O)CCCCCCCCCCCCCCCCCCC(=O)O)C(=O)O)C(=O)N[C@@H](CC(N)=O)C(=O)N[C@@H]([C@@H](C)O)C(=O)N[C@@H](C)C(=O)N[C@@H]([C@@H](C)O)C(=O)N1)[C@@H](C)O` [Compound 15, [19CD]-isoGlu-RC()NTA TC()ATQRLAEFLHHSSNNF-Gly(Me)-A-Ile(Me)-DLeu-SSTNVGSNTP-NH2] ({C20 diacid-γGlu}-RCNTATCATQRLAEFLHHSSNNF[Sar]A[NMeI][dL]SSTNVGSNTP-NH2; disulfide 2-7), the EC50 turned out to be 160 pM.

As to `CC[C@H](C)[C@@H](C(=O)N[C@@H](CC(C)C)C(=O)N[C@@H](CO)C(=O)N[C@@H](CO)C(=O)N[C@H](C(=O)N[C@@H](CC(N)=O)C(=O)N[C@H](C(=O)NCC(=O)N[C@@H](CO)C(=O)N[C@@H](CC(N)=O)C(=O)N[C@H](C(=O)N1CCC[C@H]1C(N)=O)[C@@H](C)O)C(C)C)[C@@H](C)O)N(C)C(=O)[C@H](C)NC(=O)[C@H](C)NC(=O)[C@H](Cc1ccccc1)NC(=O)[C@H](CC(N)=O)NC(=O)[C@H](CC(N)=O)NC(=O)[C@H](CO)NC(=O)[C@H](CO)NC(=O)[C@H](Cc1c[nH]cn1)NC(=O)[C@H](Cc1c[nH]cn1)NC(=O)[C@H](CC(C)C)NC(=O)[C@H](Cc1ccccc1)NC(=O)[C@H](CCC(=O)O)NC(=O)[C@H](C)NC(=O)[C@H](CC(C)C)NC(=O)[C@H](CCCNC(=N)N)NC(=O)[C@H](CCC(N)=O)NC(=O)[C@@H](NC(=O)[C@H](C)NC(=O)[C@@H]1CSSC[C@H](NC(=O)[C@H](CCCNC(=N)N)NC(=O)CC[C@H](NC(=O)CCCCCCCCCCCCCCCCCCC(=O)O)C(=O)O)C(=O)N[C@@H](CC(N)=O)C(=O)N[C@@H]([C@@H](C)O)C(=O)N[C@@H](C)C(=O)N[C@@H]([C@@H](C)O)C(=O)N1)[C@@H](C)O` [Compound 16, [19CD]-isoGlu-RC()NTATC()ATQRLAEFLHHSSNNFAA-Ile(Me)-LSSTNVGSNTP-NH2] ({C20 diacid-γGlu}-RCNTATCATQRLAEFLHHSSNNFAA[NMeI]LSSTNVGSNTP-NH2; disulfide 2-7), the EC50 under setting [1] worked out at 76 pM.

Regarding `CC[C@H](C)[C@@H](C(=O)N[C@@H](CC(C)C)C(=O)N[C@@H](CO)C(=O)N[C@@H](CO)C(=O)N[C@H](C(=O)N[C@@H](CC(N)=O)C(=O)N[C@H](C(=O)NCC(=O)N[C@@H](CO)C(=O)N[C@@H](CC(N)=O)C(=O)N[C@H](C(=O)N1CCC[C@H]1C(N)=O)[C@@H](C)O)C(C)C)[C@@H](C)O)N(C)C(=O)[C@H](C)NC(=O)[C@@H](C)NC(=O)[C@H](Cc1ccccc1)NC(=O)[C@H](CC(N)=O)NC(=O)[C@H](CC(N)=O)NC(=O)[C@H](CO)NC(=O)[C@H](CO)NC(=O)[C@H](Cc1c[nH]cn1)NC(=O)[C@H](Cc1c[nH]cn1)NC(=O)[C@H](CC(C)C)NC(=O)[C@H](Cc1ccccc1)NC(=O)[C@H](CCC(=O)O)NC(=O)[C@H](C)NC(=O)[C@H](CC(C)C)NC(=O)[C@H](CCCNC(=N)N)NC(=O)[C@H](CCC(N)=O)NC(=O)[C@@H](NC(=O)[C@H](C)NC(=O)[C@@H]1CSSC[C@H](NC(=O)[C@H](CCCNC(=N)N)NC(=O)CC[C@H](NC(=O)CCCCCCCCCCCCCCCCCCC(=O)O)C(=O)O)C(=O)N[C@@H](CC(N)=O)C(=O)N[C@@H]([C@@H](C)O)C(=O)N[C@@H](C)C(=O)N[C@@H]([C@@H](C)O)C(=O)N1)[C@@H](C)O` [Compound 17, [19CD]-isoGlu-RC()NTATC()ATQRLAEFLHHSSNNF-DAla-A-Ile(Me)-LSSTNVGSNTP-NH2] ({C20 diacid-γGlu}-RCNTATCATQRLAEFLHHSSNNF[dA]A[NMeI]LSSTNVGSNTP-NH2; disulfide 2-7), the EC50 under setting [1] stood at 93 pM.
